Consider one compound from patent US20200246308A1, “SYNERGISTIC COMBINATIONS OF UROLITHINS A AND B FOR IMPROVING COGNITIVE CAPACITY OR COGNITIVE FUNCTION” (Natreon, Inc., priority 2018, published 2020).

Experiment [1] relates to scopolamine induced dementia in rats. The experiment in a line: Y-maze test, scopolamine induced dementia in rats (Study 2). In kind it is in vivo, Charles Foster male albino rats. To be noted: Donepezil 5 mg/kg i.p.; shilajit effect at 100 mg/kg. As for the experimental part:
2.2. Animal subjects. Inbred Charles Foster male albino rats (130-180 g) were obtained from the Central Animal House, Institute of Medical Sciences (IMS), Banaras Hindu University (BHU), Varanasi, Uttar Pradesh, India. These were certified to be pathogen free and were randomly distributed into different experimental groups. The rats were kept in the departmental animal house at an ambient temperature of 25±1° C. and 45-55% RH, with a 12-h light/dark cycle (lights on 7:00-19:00 h). The animals had free access to standard pellet chow and tap water ad libitum. Experiments were conducted between 9:00 and 14:00 h. The behavioral testing was done during the light phase. Animals were housed in groups and acclimatized for at least one week before using them for experiments. Animals were transported in cage covered by dark cloth to the experimental room. The experimental procedures were in compliance with National Institutes of Health Guide for Care and Use of Laboratory Animals.
The rats were pretreated orally for seven days through an orogastric tube with experimental drugs (10, 25 and 50 mg/kg once daily) suspended in 0.3% carboxymethyl cellulose (CMC). The treatment was continued until the end of the experiment procedures (Singh, G. K., Garabadu, D., Muruganadam, A. V., Joshi, V. K., Krishnamurthy, S., “Antidepressant activity of Asparagus racemosus in animal models of depression,” Pharmacol. Biochem. Behav. (2009) 91(3):283-90). Scopolamine was dissolved in water for injection and administered on day 7 after one hour of drug treatment administration. Donepezil (5 mg/kg; i.p.)
was used as standard drug. On day 8 the behavioral experiment was performed. The animals were sacrificed and hippocampus was micro-dissected using the coordinates of the rat brain atlas. All control group animals were treated with the 0.3 ml of vehicle (0.3% CMC suspension) equal to the volume of experimental drugs (Ohj a, R., et al., “Asparagus recemosus enhances memory and protects against amnesia in rodent models,” Brain Cogn. (2010) October; 74(1): 1-9).
Spatial recognition memory, general exploratory behavior, and anxiety-like behavior were assessed by the Y-maze test. Y-maze consists of three similar arms of dimension 50 cm long, 16 cm wide and 32 cm high. In the first trial, the novel arm was blocked and the animal was allowed to move for 15 min in other two arms. In the second trial, the novel arm was opened and the animal was allowed to move for 5 min in all three arms after 4 h of the first trial. The total number of entries in all arms (for 5 min of trial-1 and trial-2) is indicative of general exploration attitude (curiosity). The % entries in known and novel arms for the 5 min period of trial 2 were considered as a measure of spatial recognition memory. Coping strategy to the novel environment was estimated by the percentage of the ratio of time spent in the novel arm to time spent in all arms and in the center of the apparatus during trial 2. The decrease in the coping behavior to the novel environment was considered as an increase in anxiety-like behavior (Krishnamurthy, S., et al., “Risperidone ameliorates post-traumatic stress disorder-like symptoms in modified stress re-stress model,” Neuropharmacology (2013) 75:62-77).

Experiment [2] relates to acetylcholine (ACh) level in HIP tissue. Nature of the experiment: Acetylcholine level in hippocampal tissue, Amplex Red kit (Example 9D). In kind it is in vivo, Male Wistar rats. The following applies: p.o. 7 days: B 50, A 50, Donepezil 3, B:A 10:50 and 50:50, Shilajit 50 mg/kg. The procedure:
Drug solution was freshly prepared in 0.3% CMC and administered by oral gavage once a day, for a period of 7 days. Briefly, the whole experiment was conducted for 8 days. Scopolamine (1 mg/kg), a muscarinic receptor antagonist, was dissolved in normal saline (0.9% NaCl) and administered intraperitoneally 1 h after drugs administration on seventh day.
Sample preparation: The animals were killed by decapitation and the brain tissues were dissected out in ice-cold conditions and stored at −80° C. until use. Tissue was homogenized in 1.0 ml of 0.1M perchloric acid with a Potter-Elvehjem homogenizer. The homogenate was kept in the polypropylene tubes for 15 min after which 40 μl of 4M potassium acetate was added to adjust the pH to 4.0 followed by centrifugation for 15 min at 4000×g. Supernatant was used to estimate acetylcholine and AChE activities.
Samples were prepared as in Example 9C. The amount of acetylcholine in brain tissues was measured using Amplex red assay kit (Molecular Probes, Inc., USA). An acetylcholine standard curve was used in each experiment. Briefly, the reactions are initiated by adding 0.1 ml of control (10 μM H2O2) and tissue homogenates were taken in two separate polypropylene tubes and then 0.1 ml working solution of 400 μM Amplex Red reagent containing 2 U/mL HRP, 0.2 U/mL choline oxidase and 1 U/mL acetylcholinesterase were added to each tube. After incubation for 45 min, the fluorescence was recorded with the help of spectrofluorometer at 530 nm excitation and 590 nm emission wavelengths. The protein content was determined using standard protocol (Lowry, et al., 1951).
Statistical analyses: The results were expressed as means±Standard Error mean (SEM). The intergroup variation was measured by one-way ANOVA followed by Student-Newman-Keuls test. Two-way followed by Bonferroni test was employed to discover the intergroup variation in Y maze test considering groups and arms as two independent variables. Statistical analysis was done by using Graph Pad prism version 5 (San Diego, Calif.). A level of p<0.05 was accepted as statistically significant.

As for `COc1cc2c(cc1OC)C(=O)C(CC1CCN(Cc3ccccc3)CC1)C2` (centres unmarked) [Donepezil, reference compound], the “Scopolamine-induced altered exploratory behavior (total arm entries)” value in experiment [1] is listed as “reversed this activity”. The “Scopolamine-induced decrease in ACh level in HIP tissue” value in experiment [2] was “the same as 3-OH-DBP (B) (50 mg/kg) group”.
